The text below walks through data of US10391180B2, “Self-assembling complex for targeting chemical agents to cells” (CEDARS-SINAI MEDICAL CENTER, priority 2007, dated 2019).

One series deals with MDA-MB-231 (HER2−) cells. In words: Targeted toxicity, MTT assay, separate dishes. The class given is cell-based. The following applies: HerDox/Dox 0.5 uM Dox; HerPBK10 0.1 uM; day 3. As to the method: (§1) FIG. 7 illustrates targeted toxicity. Each cell line was exposed to HerDox (0.5 uM Dox cone), Dox alone (0.5 uM), or HerPBK10 alone for 4 h at 37° C. in complete (i.e. serum-containing) media, followed by aspiration to remove free conjugate, and addition of fresh medium while cells are grown continuously. Cell titer was determined by metabolic (i.e. MTT) assay. FIG. 7 upper panel illustrates the effect of HerDox on MDA-MB-231 (HER2−) and MDA-MB-435 (HER2+) cell survival. Relative surviving cell numbers are represented as a % of corresponding untreated cells. FIG. 7 lower panel illustrates comparison of HerDox, Dox alone, or HerPBK10 alone on HER2− and HER2+ cell survival. Relative survival (as % of untreated cells) is shown for Day 3 of treatment.
(§2) The inventors compared the effect of HerDox or Dox alone at equivalent dosages (0.5 uM with respect to Dox concentration) on HER2+ and HER2− breast cancer cells in separate dishes. By three days, HerDox reduced HER2+ cell numbers by over 75% whereas HER2− cell survival was unaffected (FIG. 7). […] These findings emphasize the importance of targeting by showing that the untargeted drug affects nontarget (i.e. HER2−) cells. Importantly, the protein carrier, HerPBK10, alone at the equivalent concentration of protein in HerDox (0.1 uM) had no effect on either cell line (FIG. 7), including a lack of proliferation induction. To test receptor targeting, the inventors used free heregulin ligand (Her or eHRG) as a competitive inhibitor. […] As a final in vitro challenge, the inventors tested whether HerDox induces toxicity specifically to HER2+ cells in a mixed culture of HER2+ and HER2− breast cancer cells. To do this, the inventors produced a HER2− cell line tagged with green fluorescent protein (GFP) for cell identification in the mixed culture (FIG. 9 (A)). […] Altogether, these findings indicate that HerDox has the capacity to preferentially target toxicity to HER2+ cells. […] Moreover, the preferential cell killing of HER2+ cells in a mixed culture of HER2+ and HER2− cells implies that after death and lysis of the target cells, the Dox released into those cells is incapable of continuing to induce toxicity to HER2− cells. To further confirm the stability of HerDox in cell culture, HerDox was recovered from culture media in separate experiments at indicated time points and electrophoresed on an agarose gel, which was then illuminated by UV to detect Dox and stained with Coomassie blue to detect HerPBK10 protein (FIG. 9 (C)). […] Co-migration of HerPBK10 bands further verified that the conjugates remained intact in the cell media.
Background: Tetrazolium assays rely on reduction of a dye to a coloured formazan, in cell work by metabolically active cells.

Another series has as its system MDA-MB-435 (HER2+) cells. Nature of the series: Targeted toxicity, MTT assay, separate dishes. The following applies: Dox 0.5 uM; HerPBK10 0.1 uM; day 3. The series is classed as cell-based. Here is the method: as §1, §2
For series [1], the system named is MDA-MB-435 cells. In words: HerPBK10 binding to cells in human serum, ELISA. The series is classed as cell-based. The following applies: 1.2 ug/well, cells exposed 2 hours to human sera. Here is the method:
FIG. 16 illustrates HerPBK10 binding to MDA-MB-435 cells in human serum from HER2+ or HER2− breast cancer patients. Cells were treated with HerPBK10 (1.2 ug/well) in media containing human serum from each of 5 HER2+ breast cancer patients or age matched HER2− controls, both obtained pre-chemotherapy treatment. Cells were processed for ELISA using an antibody directed at HerPBK10. Control (C) wells receiving HerPBK10 in media containing bovine serum without or with 100× molar excess competitive ligand inhibitor (+ Her) are indicated by open bars. Patient sera were provided by the WCRI tissue bank at Cedars-Sinai Medical Center. N=3 wells per treatment.
To determine whether HerPBK10 can compete with circulating ligand that may be present in serum, the inventors tested HerPBK10 binding to HER2+ breast cancer cells in human serum obtained from HER2+ patients. The Women's Cancer Research Institute at Cedars-Sinai occasionally acquires limited quantities of patient serum, of which sera from HER2+ patients comprises an even smaller minority. […] Here, the inventors replaced the bovine serum in the routine culturing media with the human serum obtained from the acquired patient samples to assess whether the human serum, especially from HER2+ patients, inhibits cell binding. […]
For orientation: In an ELISA, binding on a coated surface is turned into a signal by an enzyme label.

For series [2], the system named is bilateral flank tumors (HER2+). Nature of the series: In vivo tumor toxicity, tumor growth. Details: species or system mice. The following applies: daily tail vein injections, 0.004 mg/kg Dox conc, 7 consecutive days. Here is the method:
(§3) FIGS. 12 (A)-(D) illustrates comparison of HerDox and Dox on (A) tumor growth, (B) animal weight, (C) cardiac tissue, and (D) cardiac function.
To assess in vivo tumor toxicity, mice bearing 3-4 week bilateral flank tumors began receiving daily tail vein injections of Dox or HerDox (0.004 mg/kg with respect to Dox conc), HerPBK10 alone (at equivalent protein concentration to HerDox) or saline for 7 consecutive days.

For series [3] the following is noted: in the presence of serum; cited from earlier work.
For series [4], the system named is MDA-MB-435 cells. Nature of the series: Intracellular translocation in live cells, Dox fluorescence microscopy. The series is classed as cell-based. As to the method:
FIGS. 14 (A)-(B) illustrates comparison of HerDox and Dox intracellular translocation and targets in live cells. MDA-MB-435 cells were incubated with HerDox or free Dox (0.5 uM) at 37° C. Live (unfixed) cells were imaged by brightfield and fluorescence as depicted in […], or DIC and confocal fluorescence, as depicted in FIG. 14 (B), microscopy. Dox is indicated by red or magenta pseudocolor.
To understand the mechanism of HerDox mediated tumor cell death, the inventors examined HER2+ cells microscopically after treatment with HerDox, using Dox fluorescence to detect intracellular location. […] These dynamics, in addition to earlier targeting results, support a receptor-mediated HerDox entry mechanism. Even the intranuclear pattern of Dox when delivered by HerPBK10 differs from free Dox.

The test system of another series is HER2+ tumors. In words: HerDox vs Dox biodistribution by Dox fluorescence imaging. The class given is in vivo, mice. As to the method:
FIGS. 11 (A)-(B) illustrates preferential targeting of HerDox to HER2+ tumors. Tumor-bearing mice were injected with 0.75 nmoles of HerDox or Dox via the tail vein and imaged with a custom small animal imager. FIG. 11 (A) depicts imaging of live mice after IV delivery of HerDox. Tumors are indicated by arrows. FIG. 11 (B) depicts imaging of tumors and tissues harvested at 3 h after injection of HerDox or Dox. Fluorescence signal from Dox is pseudo-colored according to the color bar, with a shift toward 100 indicating high fluorescence intensity. FIG. 11 (B) illustrates a comparison of the targeted delivery of Dox to HER2+ breast cancer cells with minimal delivery to other organs and tissues using a delivery system in accordance with an embodiment of the present invention (left panel), as compared with Dox administered alone (right panel).
Dox emits a red fluorescence upon appropriate wavelength excitation, which can be used to detect biodistribution after systemic delivery of HerDox. Mice bearing 4-week old) tumors (˜700-800 mm^3) received a single tail vein injection of Dox or HerDox ([…] with respect to Dox cone) and images of live mice captured in real time, or of organs/tissues harvested at ˜3 h postinjection were acquired using a customized macro-illumination and detection system. Fluorescence was evident throughout the body at 10 min after HerDox injection, then quickly accumulated at the tumors by 20 min and remained detectable in the tumors up to 100 min after injection (FIG. 11 (A)).

A further series deals with hearts of mice. In words: Cardiac tissue histology and echocardiography. The class given is in vivo.
Excerpt: as §3
At 25 days following injections, tumors and organs were harvested and processed for histochemistry. It is established that Dox can induce acute and long-term cardiotoxicity, therefore, the inventors examined the hearts of mice treated with HerDox or Dox.

The mark [5] stands for this setting: harvested at 3 h after injection.

For the compound “HerPBK10: receptor binding domain of heregulin fused to adenovirus penton base protein modified by a C-terminal decalysine”, the “effect on HER2− cell survival” value in the series on MDA-MB-231 (HER2−) cells was “no effect”. Besides, the “effect on HER2+ cell numbers” value in the series with MDA-MB-435 (HER2+) cells is “no effect”. The “cell binding in serum from HER2+ patients, HER2− patients, or bovine serum” value with MDA-MB-435 cells [1] was “no significant differences”. Also, the tumor growth result in series [2] is “no effect”. Also, in series [3], the “receptor targeting under physiological conditions” value is “retains receptor targeting”.

With `COc1cccc2c1C(=O)c1c(O)c3c(c(O)c1C2=O)C[C@@](O)(C(=O)CO)C[C@@H]3O[C@H]1C[C@H](N)[C@H](O)[C@H](C)O1` [Dox, doxorubicin, reference compound], the “intracellular location of Dox fluorescence” value with MDA-MB-435 cells [4] (0.5 uM, 0 min of uptake) is on record as “inside the cell at the nuclear periphery”. Besides, in the series with MDA-MB-435 cells [4] (live cells, confocal), the “intranuclear pattern of Dox” value was “accumulates in the cell nucleus”. Further, in the series on HER2+ tumors (setting [5]), the “Dox fluorescence in kidneys” value is “detectable fluorescence”, the “Dox fluorescence in liver” value is “detectable fluorescence” and the “Dox fluorescence in tumors” value is “detectable fluorescence”. In addition, the “Dox fluorescence in lungs and skeletal muscle” value with HER2+ tumors (harvested ~3 h after injection, equivalent dose of Dox) was “Lower levels of fluorescence”. Further, in the series with hearts of mice (25 days following injections), the “gross appearance of hearts” value is “slightly enlarged and dilated”; the “myocardium morphology (histochemistry)” value was “focal degeneration, myofibrillar loss, increased cytosoplasmic vacuolization, and nuclear condensation or dissolution”. In addition, the “echocardiogram: stroke volume, cardiac output, left ventricular internal dimension and volume” value with hearts of mice (treated mice) is on record as “modest to marked reductions”. Also, the “effect on HER2− cell survival” value with MDA-MB-231 (HER2−) cells is “reduced both HER2+ and HER2− cells by the same order of magnitude”. In addition, the “effect on HER2+ cell numbers” value in the series on MDA-MB-435 (HER2+) cells was “reduced both HER2+ and HER2− cells by the same order of magnitude”. Also, in series [2], the tumor growth entry was “slows tumor growth”.
